In patent US20110053916A1 (Vertex Pharmaceuticals Incorporated, priority 2009, published 2011):

biological target: T1, PknB (Mycobacterium tuberculosis, UniProt P9WI81); assay: biochemical; set-up: species or system M. tuberculosis; settings: 3 nM PknB, 6 uM GarA, 3 μM ATP, 30 min; competitive tight-binding fit; several symbols in a cell = repeat determinations
T1 construct: made in house
T1 sequence (P9WI81 whole entry): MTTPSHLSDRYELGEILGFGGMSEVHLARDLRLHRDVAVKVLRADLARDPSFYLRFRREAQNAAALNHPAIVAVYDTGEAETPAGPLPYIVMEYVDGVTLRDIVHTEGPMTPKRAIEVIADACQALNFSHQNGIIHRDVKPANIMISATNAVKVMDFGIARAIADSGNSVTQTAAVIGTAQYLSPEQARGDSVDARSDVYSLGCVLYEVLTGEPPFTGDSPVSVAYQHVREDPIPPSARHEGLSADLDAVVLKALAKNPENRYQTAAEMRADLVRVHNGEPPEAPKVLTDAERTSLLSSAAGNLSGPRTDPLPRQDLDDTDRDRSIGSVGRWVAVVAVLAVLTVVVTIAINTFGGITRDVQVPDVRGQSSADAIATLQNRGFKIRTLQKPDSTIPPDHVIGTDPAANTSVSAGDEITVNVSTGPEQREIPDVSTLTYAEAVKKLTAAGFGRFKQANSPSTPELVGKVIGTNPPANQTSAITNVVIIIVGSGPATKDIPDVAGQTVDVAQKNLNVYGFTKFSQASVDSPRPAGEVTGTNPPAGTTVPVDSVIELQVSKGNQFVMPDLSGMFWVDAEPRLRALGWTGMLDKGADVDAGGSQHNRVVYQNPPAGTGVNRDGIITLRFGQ

| Compound | Ki Values |
| --- | --- |
| CC(C)(O)c1ccc(-c2ncc(Cl)c(Nc3cc(C4CC4)[nH]n3)n2)s1 [Compound 87, 2-(5-(5-chloro-4-(5-cyclopropyl-1H-pyrazol-3-ylamino)pyrimidin-2-yl)thiophen-2-yl)propan-2-ol] | A**, A* |
| c1cc(Nc2cc(C3CC3)[nH]n2)nc(N2CCCCC2)n1 [Compound 64, N-(5-cyclopropyl-1H-pyrazol-3-yl)-2-(1-piperidyl)pyrimidin-4-amine] | A*, B** |
| C#Cc1cnc(-c2ccc([C@@H](O)CCC)s2)nc1Nc1cc(C2CC2)n[nH]1 (stereo in doubt) [Compound 211, 1-[5-[4-[(5-cyclopropyl-2H-pyrazol-3-yl)amino]-5-ethynyl-pyrimidin-2-yl]-2-thienyl]butan-1-ol] | A**, A*, A* |
| CC(=O)c1ccc(-c2ncc(Br)c(Nc3cc(C4CC4)[nH]n3)n2)s1 [Compound 165, 1-[5-[5-bromo-4-[(5-cyclopropyl-1H-pyrazol-3-yl)amino]-pyrimidin-2-yl]-2-thienyl]ethanone] | A**, A* |

same assay, conditions: 3 nM PknB, 6 uM GarA, 3 μM ATP, 30 min; competitive tight-binding fit; several symbols in a cell = repeat determinations; read-out: Ki Values

| Compound | Ki [nM] |
| --- | --- |
| NS(=O)(=O)c1cccc(-c2ncc(Cl)c(Nc3cc(C4CC4)[nH]n3)n2)c1 [Compound 30, 3-[5-chloro-4-[(5-cyclopropyl-1H-pyrazol-3-yl)amino]-pyrimidin-2-yl]benzenesulfonamide] | 10 to 50 |
| NS(=O)(=O)c1ccc(-c2ncc(Cl)c(Nc3cc(C4CC4)[nH]n3)n2)s1 [Compound 42, 5-(5-chloro-4-(5-cyclopropyl-1H-pyrazol-3-ylamino)pyrimidin-2-yl)thiophene-2-sulfonamide] | 1 to 10 |
| NS(=O)(=O)c1cccc(Nc2nccc(Nc3cc(C4CC4)n[nH]3)n2)c1 [Compound 82] | 50 to 100 |
| NS(=O)(=O)c1ccc(-c2ncc(Cl)c(Nc3cc(C4CCN(C(=O)OCc5ccccc5)C4)n[nH]3)n2)s1 (stereo not shown) [Compound 262, benzyl 3-[5-[[5-chloro-2-(5-sulfamoyl-2-thienyl)-pyrimidin-4-yl]amino]-1H-pyrazol-3-yl]pyrrolidine-1-carboxylate] | 1000 to 2000 |
| O=C(O)c1ccc(Nc2nccc(Nc3cc(C4CC4)n[nH]3)n2)cc1 [Compound 57, 4-[[4-[(5-cyclopropyl-2H-pyrazol-3-yl)amino]pyrimidin-2-yl]amino]benzoic acid] | 100 to 500 |
| CN(C)CCNS(=O)(=O)c1cccc(-c2ncc(Cl)c(Nc3cc(C4CC4)[nH]n3)n2)c1 [Compound 97, 3-[5-chloro-4-[(5-cyclopropyl-1H-pyrazol-3-yl)amino]-pyrimidin-2-yl]-N-(2-dimethylaminoethyl)benzenesulfonamide] | 10 to 50 |
| NC(=O)c1ccc(-c2ncc(Cl)c(Nc3cc(C4CC4)[nH]n3)n2)s1 [compound 131, 5-(5-Chloro-4-(5-cyclopropyl-1H-pyrazol-3-ylamino)pyrimidin-2-yl)thiophene-2-carboxamide] | 1 to 10 |
| Cc1cnc(-c2ccc(CC#N)cc2)nc1Nc1cc(C2CC2)[nH]n1 [Compound 24, 2-(4-(4-(5-cyclopropyl-1H-pyrazol-3-ylamino)-5-methylpyrimidin-2-yl)phenyl)acetonitrile] | 10 to 50 |
| Clc1cnc(-c2ccco2)nc1Nc1cc(C2CC2)[nH]n1 [Compound 164, 5-chloro-N-(5-cyclopropyl-1H-pyrazol-3-yl)-2-(furan-2-yl)pyrimidin-4-amine] | 100 to 500 |
| Cc1cnc(-c2ccc(S(C)(=O)=O)cc2)nc1Nc1cc(C2CC2)[nH]n1 [Compound 20, N-(5-cyclopropyl-1H-pyrazol-3-yl)-5-methyl-2-(4-(methylsulfonyl)phenyl)pyrimidin-4-amine] | 100 to 500 |
| C#Cc1cnc(-c2cccc(S(N)(=O)=O)c2)nc1Nc1cc(C2CC2)[nH]n1 [Compound 110, 3-(4-(5-cyclopropyl-1H-pyrazol-3-ylamino)-5-ethynylpyrimidin-2-yl)benzene sulfonamide] | 10 to 50 |
| O=S(=O)(c1ccc(-c2ncc(Cl)c(Nc3cc(C4CC4)[nH]n3)n2)s1)N1CCNCC1 [Compound 135, 5-chloro-N-(5-cyclopropyl-1H-pyrazol-3-yl)-2-(5-piperazin-1-ylsulfonyl-2-thienyl)-pyrimidin-4-amine] | 10 to 50 |
| C#Cc1cnc(-c2ccc(C(=O)C(=O)O)s2)nc1Nc1cc(C2CC2)[nH]n1 [Compound 246, 2-[5-[4-[(5-cyclopropyl-1H-pyrazol-3-yl)amino]-5-ethynyl-pyrimidin-2-yl]-2-thienyl]-2-oxo-acetic acid] | 10 to 50 |
| CC(=O)c1ccc(-c2ncc(F)c(Nc3cc(C4CC4)[nH]n3)n2)s1 [Compound 137, 1-(5-(4-(5-cyclopropyl-1H-pyrazol-3-ylamino)-5-fluoropyrimidin-2-yl)thiophen-2-yl)ethanone] | 10 to 50 |
| C#Cc1cnc(N2CCCC2)nc1Nc1cc(C2CC2)[nH]n1 [Compound 178, N-(5-cyclopropyl-1H-pyrazol-3-yl)-5-ethynyl-2-pyrrolidin-1-yl-pyrimidin-4-amine] | 100 to 500 |
| Clc1cnc(-c2cccs2)nc1Nc1cc(C2CC2)[nH]n1 [Compound 29, 5-chloro-N-(5-cyclopropyl-1H-pyrazol-3-yl)-2-(thiophen-2-yl)pyrimidin-4-amine] | 50 to 100 |
| CNS(=O)(=O)c1ccc(-c2nccc(Nc3cc(C4CC4)[nH]n3)n2)s1 [Compound 48] | 1 to 10 |
| CC(=O)NCCNS(=O)(=O)c1ccc(-c2ncc(Br)c(Nc3cc(C4CC4)[nH]n3)n2)s1 [Compound 166, N-(2-(5-(5-bromo-4-(5-cyclopropyl-1H-pyrazol-3-ylamino)pyrimidin-2-yl)thiophene-2-sulfonamido)ethyl)acetamide] | 10 to 50 |

| Compound | Ki [nM] |
| --- | --- |
| C#Cc1cnc(-c2ccc(C(O)CCOC)s2)nc1Nc1cc(C2CC2)n[nH]1 (stereo not shown) [Compound 230, 1-[5-[4-[(5-cyclopropyl-2H-pyrazol-3-yl)amino]-5-ethynyl-pyrimidin-2-yl]-2-thienyl]-3-methoxy-propan-1-ol] | 50 to 100 |
| COc1ccc(-c2ncc(Cl)c(Nc3cc(C4CC4)[nH]n3)n2)cc1S(N)(=O)=O [Compound 161, 5-[5-chloro-4-[(5-cyclopropyl-1H-pyrazol-3-yl)amino]-pyrimidin-2-yl]-2-methoxy-benzenesulfonamide] | 50 to 100 |
| CC(O)c1ccc(-c2ncc(Cl)c(Nc3cc(C4CC4)[nH]n3)n2)o1 (stereo not shown) [Compound 289, 1-[5-[5-chloro-4-[(5-cyclopropyl-1H-pyrazol-3-yl)amino]-pyrimidin-2-yl]-2-furyl]ethanol] | 100 to 500 |
| Brc1cnc(-c2ccccc2)nc1Nc1cc(C2CC2)n[nH]1 [Compound 8, 5-Bromo-N-(5-cyclopropyl-1H-pyrazol-3-yl)-2-phenylpyrimidin-4-amine] | 100 to 500 |
| Brc1c(C2CC2)n[nH]c1Nc1ccnc(-c2ccccc2)n1 [Compound 7, N-(4-bromo-5-cyclopropyl-2H-pyrazol-3-yl)-2-phenyl-pyrimidin-4-amine] | > 4000 |
| CCCc1cnc(N2CCN(C)CC2)nc1Nc1cc(C2CC2)[nH]n1 [Compound 72, N-(5-cyclopropyl-1H-pyrazol-3-yl)-2-(4-methylpiperazin-1-yl)-5-propyl-pyrimidin-4-amine] | > 4000 |
| NS(=O)(=O)c1ccc(-c2ncc(Cl)c(Nc3cc(-c4ccco4)[nH]n3)n2)s1 [Compound 247, 5-[5-chloro-4-[[5-(2-furyl)-1H-pyrazol-3-yl]amino]-pyrimidin-2-yl]thiophene-2-sulfonamide] | 100 to 500 |
| C#Cc1cnc(-c2ccc(C(=C)C)s2)nc1Nc1cc(C2CC2)n[nH]1 [Compound 119, N-(5-cyclopropyl-2H-pyrazol-3-yl)-5-ethynyl-2-(5-isopropenyl-2-thienyl)-pyrimidin-4-amine] | 10 to 50 |
| C#Cc1cnc(-c2ccc([C@@H](O)C(C)C)s2)nc1Nc1cc(C2CC2)n[nH]1 (stereo in doubt) [Compound 210, 1-[5-[4-[(5-cyclopropyl-2H-pyrazol-3-yl)amino]-5-ethynyl-pyrimidin-2-yl]-2-thienyl]-2-methyl-propan-1-ol] | 10 to 50 |
| NS(=O)(=O)c1ccc(-c2nc(Nc3n[nH]c(C4CC4)c3Cl)cc(C(=O)O)n2)s1 [Compound 292, 6-[(4-chloro-5-cyclopropyl-1H-pyrazol-3-yl)amino]-2-(5-sulfamoyl-2-thienyl)-pyrimidine-4-carboxylic acid] | > 4000 |
| COC(=O)CC1c2cnc(-c3ccccc3)nc2Nc2cc(C3CC3)nn21 (stereo not shown) [Compound 49, methyl 2-(cyclopropyl-phenyl-BLAHyl)acetate] | > 4000 |
| c1csc(-c2nccc(Nc3cc(C4CC4)[nH]n3)n2)c1 [Compound 27, N-(5-cyclopropyl-1H-pyrazol-3-yl)-2-(thiophen-2-yl)pyrimidin-4-amine] | 10 to 50 |
| NS(=O)(=O)c1cccc(-c2nccc(Nc3cc(C4CC4)[nH]n3)n2)c1 [Compound 28, 3-[4-[(5-cyclopropyl-1H-pyrazol-3-yl)amino]pyrimidin-2-yl]benzenesulfonamide] | 10 to 50 |
| C#Cc1cnc(-c2ccc([C@H](O)CC)s2)nc1Nc1cc(C2CC2)[nH]n1 [Compound 213, 1-[5-[4-[(5-cyclopropyl-1H-pyrazol-3-yl)amino]-5-ethynyl-pyrimidin-2-yl]-2-thienyl]propan-1-ol] | 1 to 10 |
| C#Cc1cnc(N2CCCN(C)CC2)nc1Nc1cc(C2CC2)[nH]n1 [Compound 248, N-(5-cyclopropyl-1H-pyrazol-3-yl)-5-ethynyl-2-(4-methyl-1,4-diazepan-1-yl)-pyrimidin-4-amine] | > 4000 |
| N#CCc1ccc(-c2ncc(N)c(Nc3cc(C4CC4)[nH]n3)n2)cc1 [Compound 92, 2-(4-(5-amino-4-(5-cyclopropyl-1H-pyrazol-3-ylamino)pyrimidin-2-yl)phenyl)acetonitrile] | 10 to 50 |
| C#Cc1cnc(-c2ccc(C(O)CCO)s2)nc1Nc1cc(C2CC2)[nH]n1 (stereo not shown) [Compound 242, 1-(5-(4-(5-cyclopropyl-1H-pyrazol-3-ylamino)-5-ethynylpyrimidin-2-yl)thiophen-2-yl)propane-1,3-diol] | 10 to 50 |
| CCc1cnc(N2CCN(C)CC2)nc1Nc1cc(C2CC2)[nH]n1 [Compound 46, N-(5-cyclopropyl-1H-pyrazol-3-yl)-5-ethyl-2-(4-methylpiperazin-1-yl)-pyrimidin-4-amine] | > 4000 |
